# Patent publication US12397004B2, “Nasal delivery of low-dose aspirin for the treatment of neurodegenerative and lysosomal storage diseases” (Rush University Medical Center, priority 2018, dated 2025)
# Experiments:
# [1] = test system: adoptively-transferred EAE; test: Adoptive-transfer EAE in female SJL/J mice: clinical symptoms, grip test, rotorod after aspirin nebulization; type: in vivo; conditions: 0.2 and 0.4 mg/kg body wt/d
# Protocol: FIG. 2A-2C. Nebulization of low-dose aspirin reduced clinical symptoms of experimental allergic encephalomyetis (EAE) in female SJL/J mice. 2A) EAE was induced in 4-5 week old female SLJ/mice by adoptive transfer of myelin basic protein (MBP) primed T cells and from 9 days post-transfer (dpt), mice were treated with different doses of aspirin once daily for nebulization. Mice (n=6 per group in two independent experiments) were scored daily. On 16 dpt (acute phase), mice were examined for grip test (2B) and rotorod (2C). Results are presented as mean±SEM of six (6) mice per group. ^ap<0.001 vs control; ^bp<0.001 vs EAE by two-samples t-tests. Oral tablets of baby aspirin with a standard dosage of 81 mg were solubilized in hot double distilled water and cooled to room temperature. This liquid formulation was made fresh every week. In mice, an aspirin dose of 1 mg/kg body wt/d aspirin is equivalent to “Baby Aspirin” (81 mg tablet per adult). A Buxco Inhalation Tower All-In-One Controller by DSI™ was used for air supply for nebulization (FIG. 1A). A whole body chamber was fitted with an Aeroneb® Ultrasonic Nebulizer (FIG. 1B) supplied with air from a Buxco bias flow pump. Mice were allowed to nebulize aspirin at doses of […] mg/kg body wt/d (solubilized in a volume of 100 μl double-distilled water/mouse) for 3 min. Therefore, control group of mice also received 100 μl water by nebulization. Experimental allergic encephalomyelitis (EAE) is an animal model of MS, the most common human demyelinating disease. RR-EAE was induced in female SJL/J mice by adoptive transfer of myelin […] (MBP) primed T cells (FIG. 2A). As expected, induction of EAE reduced grip test (FIG. 2B) and rotorod (FIG. 2C) performances of mice. Mice were then nebulized with aspirin (0.2 and 0.4 mg/kg body wt/d in a volume of 100 μl/mouse) from 9 days post-transfer (dpt) of MBP-primed T cells. The control EAE group were treated with only water via nebulization. A dose of 0.2 mg/kg body wt/d aspirin equates to approximately 16 mg per adult. Clinical symptoms were monitored every day until 38 dpt. […]
# [2] = test system: CD4+Foxp3+ Tregs; test: FACS of lymph node cells of EAE mice for Foxp3 and CD4 (Tregs); type: in vivo, female SJL/J mice; conditions: 0.2 and 0.4 mg/kg body wt/d, nebulization from 9 dpt, 16 dpt
# Protocol: FIG. 3A-3B. Nebulization of low-dose aspirin improves regulatory T cells (Tregs) in vivo in mice with adoptive transfer EAE. Lymph node cells of control, EAE (16 dpt) and low doses of aspirin-treated EAE mice (16 dpt receiving 0.2 and 0.4 mg/kg body wt/d aspirin in 100 μl water from 9 dpt via nebulization) were analyzed by fluorescence activated cell sorting (FACS) for Foxp3 and CD4 (3A). The mean fluorescence intensity (MFI) of Foxp3 in CD4+ population was calculated by using CellQuest software (3B). Data were mean±SEM of four mice per group. ^ap<0.001 vs control; ^bp<0.001 vs EAE by two-samples t-tests. Tregs are most important immunomodulatory subtype of T lymphocytes (Sakaguchi, 2005; Sakaguchi and Powrie, 2007) that are known to suppress EAE and MS. Nebulization of aspirin was further investigated to determine whether nebulization was capable of enriching Tregs in vivo in EAE mice. EAE mice receiving aspirin nebulization from 9 dpt were sacrificed on 16 dpt, followed by analysis of Tregs in lymph node cells (LNC). Foxp3 protein is currently considered as the most important marker of Tregs and by dual fluorescence-activated cell sorting (FACS) staining, we found decrease in CD4^+Foxp3^+ Tregs in LNC of EAE mice (FIG. 3A-B). However, nebulization of EAE mice with aspirin at both 0.2 and 0.4 mg/kg body wt/d doses protected CD4+Foxp3+ Tregs (FIG. 3A-B).
# [3] = test system: CD4+IL-17+ T cells; test: FACS of lymph node cells of EAE mice for IL-17 and CD4 (Th17 response); type: in vivo, female SJL/J mice; conditions: 0.2 and 0.4 mg/kg body wt/d, nebulization from 9 dpt, 16 dpt
# Protocol: FIG. 4A-4B. Nebulization of low-dose aspirin suppresses the Th17 response in vivo in mice with adoptive transfer EAE. Lymph node cells of control, EAE (16 dpt) and low doses of aspirin-treated EAE mice (16 dpt receiving 0.2 and 0.4 mg/kg body wt/d aspiring in 100 μl water from 9 dpt via nebulization) were analyzed by FACS for IL-17 and CD4 (4A). The MFI of IL-17 in CD4+ population was calculated by using CellQuest software (4B). Data were mean±SEM of four mice per group. ^ap<0.001 vs control; ^bp<0.001 vs EAE by two-samples t-tests. T helper cell 17 (Th17) cells are considered to play a more important role than Th1 cells in the disease process of EAE and MS (El-behi et al., 2010). Since aspirin nebulization enriched Tregs, aspirin nebulization was tested to determine if aspirin nebulization was capable of suppressing Th17 response in vivo in EAE mice. Th17 cells are characterized by expression of IL-17 (Shi et al., 2008). […] However, nebulization of EAE mice with aspirin led to the suppression of the CD4+IL-17+ T cell population in LNC (FIG. 4A). This is also corroborated by mean fluorescence intensity (MFI) analysis of IL-17 within the CD4+ population (FIG. […]).
# [4] = test system: FAD5× mouse model of AD; test: Barnes maze, hippocampus-dependent spatial behavior in FAD5× mice; type: in vivo; conditions: 0.2 and 0.4 mg/kg body wt/d, nebulization, 30 days
# Protocol: FIG. 5A-5E. Nebulization of low-dose aspirin protects memory in the FAD5× mouse model of AD. Six to seven-month old FAD5× mice were treated with low doses (0.2 and 0.4 mg/kg body wt/d) of aspirin via nebulization. After 30 days of treatment, hippocampus-dependent spatial behavior was monitored by Barnes maze. 5A) Representative heat maps summarizing the overall activity of mice on the apparatus recorded with a Noldus camera and visualized by Ethovision XT software. 5B) Latency and 5C) number of errors made by all groups of mice. Context-dependent hippocampal behavior was analyzed by T-maze. 5D) Number of positive turns and 5E) number of negative turns of all groups of mice on an appetitive T-maze conditioning task were manually recorded. Results are presented as mean±SEM of 5 mice per group. ^ap<0.001 vs non-Tg; ^bp<0.001 vs FAD5×; ^cp<0.01 vs non-Tg; ^dp<0.05 vs FAD5×. A Buxco Inhalation Tower All-In-One Controller by DSI™ was used for air supply for nebulization (FIG. 1A). A whole body chamber was fitted with an Aeroneb® Ultrasonic Nebulizer (FIG. 1B) supplied with air from a Buxco bias flow pump. […] Hippocampus-dependent spatial learning and cognitive behavior can be reliably monitored in the Barnes maze test (Roy et al., 2013; Roy et al., 2015).
# [5] = test system: FAD5× mouse model of AD; test: T-maze, context-dependent hippocampal behavior in FAD5× mice; type: in vivo; conditions: 0.2 and 0.4 mg/kg body wt/d, nebulization, 30 days
# Protocol: FIG. 5A-5E. Nebulization of low-dose aspirin protects memory in the FAD5× mouse model of AD. Six to seven-month old FAD5× mice were treated with low doses (0.2 and 0.4 mg/kg body wt/d) of aspirin via nebulization. After 30 days of treatment, hippocampus-dependent spatial behavior was monitored by Barnes maze. 5A) Representative heat maps summarizing the overall activity of mice on the apparatus recorded with a Noldus camera and visualized by Ethovision XT software. 5B) Latency and 5C) number of errors made by all groups of mice. Context-dependent hippocampal behavior was analyzed by T-maze. 5D) Number of positive turns and 5E) number of negative turns of all groups of mice on an appetitive T-maze conditioning task were manually recorded. Results are presented as mean±SEM of 5 mice per group. ^ap<0.001 vs non-Tg; ^bp<0.001 vs FAD5×; ^cp<0.01 vs non-Tg; ^dp<0.05 vs FAD5×. T-maze apparatus monitors context-dependent hippocampal behavior, which may be a better index to test cognition in mice. […] However, similar to that observed with Barnes maze, nebulization of low doses of aspirin improved the performance of FAD5× mice on T maze as evident by increase in positive turns (FIG. 5D) and decrease in negative turns (FIG. 5E).
# [6] = test system: Aβ; test: Western blot of Aβ in hippocampal extracts of FAD5× mice (6E10 and 82E1 antibodies); type: in vivo; conditions: 0.2 and 0.4 mg/kg body weight/d, nebulization, 30 days, immunoblot
# Protocol: FIG. 6A-6D: Nebulization of very low-dose aspirin lowers cerebral plaque load in an animal model of AD. Six-month old FAD5× transgenic mice were treated with 0.2 mg/kg body wt/d and 0.4 mg/kg body wt/d aspirin via nebulization using the Buxco Inhalation Tower. After 30 days of treatment, Aβ levels were monitored in hippocampal extracts by Western blot analysis (A & C) and densitometric analysis (B & D) using 6E10 (A & B) and 82E1 (C & D) antibodies. Actin was used as loading control. Results are presented as mean±SEM of 4 mice per group. ^ap<0.001 vs non-Tg; ^bp<0.001 vs. FAD5×. To explore whether nebulization of very low-dose aspirin was capable of reducing the amyloid load in the hippocampus, the most affected brain region in AD, of FAD5× (Tg) mice, the following experiment was performed. […] The 82E1 is known to detect both soluble and fibrillar human Aβ to a similar degree.
# [7] = test system: Aβ immunoreactive plaques; test: DAB immunostaining (6E10) of hippocampal sections, plaque load in FAD5× mice; type: in vivo; conditions: 0.2 and 0.4 mg/kg body wt/d, nebulization, 30 days, 6E10 DAB staining
# Protocol: FIG. 7A-7B: Nebulization of very low-dose aspirin lowers cerebral plaque load in an animal model of AD. Six-month old FAD5× transgenic mice were treated with 0.2 mg/kg body wt/d and 0.4 mg/kg body wt/d aspirin via nebulization using the Buxco Inhalation Tower. After 30 days of treatment, A) diaminobenzidine (DAB) staining was performed in hippocampal sections using 6E10 antibody. B) Quantification of number of plaques in the hippocampus relative to nontransgenic. Two sections (two images per section) of each of five mice per group were used in counting. All data are represented as mean±SEM. ^ap<0.001 vs non-Tg; ^bp<0.001 vs. FAD5×. Next, in order to check the amyloid deposition in the brain, hippocampal sections were labeled with 6E10 antibody by diaminobenzidine immunostaining. Parallel to the immunoblot results, there was marked abundance of AP immunoreactive plaques in the hippocampus of Tg mice (FIG. 7A-B).
# [8] = test system: myelin; test: Demyelination in spinal cord of EAE mice (MBP immunostaining, Luxol fast blue); type: in vivo, female SJL/J mice; conditions: 0.2 and 0.4 mg/kg body wt/d, nebulization from onset of acute phase, MBP and LFB staining
# Protocol: FIG. 8A-8C: Nebulization of very low-dose aspirin protects myelin in experimental autoimmune encephalomyelitis (EAE), a mouse model of multiple sclerosis. EAE was induced in female SJL/J mice (4-6 week old) by adoptive transfer of MBP-primed T cells. Mice were treated with 0.2 mg/kg body wt/d and 0.4 mg/kg body wt/d aspirin via nebulization using the Buxco Inhalation Tower from the onset of acute phase. A) Spinal cord sections were immunostained with MBP (red). B) Sections were also stained with Luxol fast blue. Digital images were collected under bright field setting using a 40× objective. Demyelination was represented quantitatively (C). Data are expressed as the mean±SEM of five different mice per group. […]. EAE is an animal model of human demyelinating disease multiple sclerosis (MS). It was determined whether aspirin nebulization decreased demyelination in mice with EAE. To examine demyelination, spinal cord sections were stained with MBP, a major component of myelin. Moreover, spinal cord sections were also stained with luxol fast blue (LFB), which reacts with myelin. As evident from MBP immunostaining (FIG. 8A) and LFB staining (FIG. 8B), there were widespread demyelination zones in the white matter in mice with EAE.
# [9] = test system: FAD5× mouse model of AD; conditions: oral, 2 mg/kg body wt/d; cited from earlier work
# [10] = nebulization from 9 dpt, tested 16 dpt
smiles,measurement,setting,value
"CC(=O)Oc1ccccc1C(=O)O [aspirin, acetylsalicylic acid]",grip test activity of EAE mice,[1]; [10],significantly improved
same,rotorod activity of EAE mice,[1]; [10],significantly improved
same,clinical manifestations of adoptively-transferred EAE,"[1]; nebulization once daily from 9 dpt, monitored until 38 dpt",strongly inhibited
same,CD4+Foxp3+ Tregs in lymph node cells,[2],protected
same,CD4+IL-17+ T cell population in lymph node cells,[3],suppression
same,Barnes maze errors,[4],decreased
same,Barnes maze latency,[4],significantly improved
same,T-maze negative turns,[5],decrease
same,T-maze positive turns,[5],increase
same,"level of Aβ in the hippocampus, 6E10 antibody",[6],significantly reduced
same,plaque load in the hippocampus,[7],decreasing the plaque load
same,loss of myelin in the spinal cord (demyelination),[8],prevented the loss of myelin
same,memory and learning,[9],protect memory and learning
